Converted amounts (≈) assume the structure as drawn. Numbered stars: 1 amine (or outer) side, 2 acyl side, 3 side chain; on linkers, the order of the positions; unused ones are H or OH. Bridge positions count the residues as written; N and C are the ends. Square brackets hold non-standard residues; d marks the D form. Peptide text beside a SMILES is read from it. * marks the point of attachment. pTerphenylCO(4''-OnC5H11) = CCCCCOc1ccc(-c2ccc(-c3ccc(C(=O)*)cc3)cc2)cc1; Orn(4R-OH,5R-OH) = O=C([C@H](C[C@@H](O)[C@@H](O)N[*:3])N[*:1])[*:2]; hTyr(3S-OH,4S-OH) = N[C@H](C(=O)O)[C@H](O)[C@@H](O)c1ccc(O)cc1; Pro(3S-OH,4S-Me) = C[C@H]1CN[C@H](C(=O)O)[C@H]1O; Hyp = O=C(O)[C@@H]1C[C@@H](O)CN1
Tests used:
Type in all cases: functional
Candida albicans [1] = test: Antimicrobial activity against Candida albicans grown as planktonic cell by broth microdilution method
Candida albicans [2] = test: Antimicrobial activity against Candida albicans GDH2346 grown as sessile cell after 48 hrs by broth microdilution method; settings: GDH2346, 48 h
Candida albicans [3] = test: Antimicrobial activity against Candida albicans grown as planktonic cell after 48 hrs by broth microdilution method
Candida albicans [4] = test: Antimicrobial activity against Candida albicans grown as sessile cell after 48 hrs by broth microdilution method
Candida albicans [5] = test: Antimicrobial activity against Candida albicans grown as planktonic cell after 24 hrs by broth microdilution method

Compound | MIC90 (Candida albicans [1]) | MIC (Candida albicans [2]) | MIC (Candida albicans [3]) | MIC (Candida albicans [4]) | MIC (Candida albicans [5]) | MIC (Candida albicans [1]) | MIC50 (Candida albicans [1])
CC[C@H](C)C[C@H](C)CCCCCCCCC(=O)N[C@H]1C[C@@H](O)[C@@H](NCCN)NC(=O)[C@@H]2[C@@H](O)CCN2C(=O)[C@H]([C@H](O)CCN)NC(=O)[C@H]([C@H](O)[C@@H](O)c2ccc(O)cc2)NC(=O)[C@@H]2C[C@@H](O)CN2C(=O)[C@H]([C@@H](C)O)NC1=O [CASPOFUNGIN] | 0.5 µg/mL (≈ 0.457 µM) |  |  |  |  |  | 
CCCCCOc1ccc(-c2ccc(-c3ccc(C(=O)N[C@H]4C[C@@H](O)[C@@H](O)NC(=O)[C@@H]5[C@@H](O)[C@@H](C)CN5C(=O)[C@H]([C@@H](C)O)NC(=O)[C@H]([C@H](O)[C@@H](O)c5ccc(O)cc5)NC(=O)[C@@H]5C[C@@H](O)CN5C(=O)[C@H]([C@@H](C)O)NC4=O)cc3)cc2)cc1 [ANIDULAFUNGIN] ({pTerphenylCO(4''-OnC5H11)}-[Orn(4R-OH,5R-OH)]T[Hyp][hTyr(3S-OH,4S-OH)]T[Pro(3S-OH,4S-Me)]; lactam 1-C) | 0.125 µg/mL (≈ 0.11 µM) | ≤ 0.03 µg/mL | ≤ 0.5 µg/mL | > 0.03 µg/mL | 0.125 µg/mL (≈ 0.11 µM) | ≤ 0.03 µg/mL | ≤ 0.03 µg/mL
C[C@@H]1[C@H](O)[C@@H](C)/C=C/C=C/C=C/C=C/C=C/C=C/C=C/[C@H](O[C@@H]2O[C@H](C)[C@@H](O)[C@H](N)[C@@H]2O)C[C@@H]2O[C@](O)(C[C@@H](O)C[C@@H](O)[C@H](O)CC[C@@H](O)C[C@@H](O)CC(=O)O[C@H]1C)C[C@H](O)[C@H]2C(=O)O [AMPHOTERICIN B] | 0.25 µg/mL (≈ 0.271 µM) |  |  |  |  |  | 
C[C@@H](c1ncncc1F)[C@](O)(Cn1cncn1)c1ccc(F)cc1F [VORICONAZOLE] | > 0.06 µg/mL |  |  |  |  |  | 
